Laboratory results as given in patent publication US11078202B2, “β-lactamase inhibitor and use thereof” (priority 2018, dated 2021).
Counter-ions that a name gives are not always drawn.

What was measured:
Assay type in all cases: cell-based
[1] = system: Klebsiella pneumoniae XNWB 0006; assay: MIC assay of test compounds combined with imipenem (4 μg/mL); settings: imipenem 4 μg/mL fixed
Procedure, shortened: (§1)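 Frozen strains, thawed and passaged twice on TSA (35±2 °C, 20-24 h), supplied colonies standardised in saline to OD600 0.1-0.15. These suspensions, diluted 300× in 1.1×CAMHB, were exposed to graded compound with constant partner antibiotic; MICs were read after 16-20 h at 35±2 °C.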

[2] = system: Klebsiella pneumoniae XNWB 0005; assay: as above; settings: imipenem 4 μg/mL fixed
Procedure, shortened: as §1

[3] = system: Acinetobacter baumannii XNWB 0007; assay: as above; settings: imipenem 4 μg/mL fixed
Procedure, shortened: as §1

[4] = system: Klebsiella pneumoniae XNWB 0003; assay: as above; settings: imipenem 4 μg/mL fixed
Procedure, shortened: as §1

[5] = system: Klebsiella pneumoniae XNWB 0002; assay: as above; settings: imipenem 4 μg/mL fixed
Procedure, shortened: as §1

[6] = system: Klebsiella pneumoniae XNWB 0001; assay: as above; settings: imipenem 4 μg/mL fixed
Procedure, shortened: as §1

[7] = system: Klebsiella pneumoniae XNWB 0004; assay: as above; settings: imipenem 4 μg/mL fixed
Procedure, shortened: as §1

[8] = system: Pseudomonas aeruginosa XNWB 0008; assay: as above; settings: imipenem 4 μg/mL fixed
Procedure, shortened: as §1

[9] = system: Klebsiella pneumoniae XNWB 0006; assay: MIC assay of test compounds combined with ceftazidime (8 μg/mL); settings: ceftazidime 8 μg/mL fixed
Procedure, shortened: as §1

[10] = system: Klebsiella pneumoniae XNWB 0005; assay: as above; settings: ceftazidime 8 μg/mL fixed
Procedure, shortened: as §1

[11] = system: Acinetobacter baumannii XNWB 0007; assay: as above; settings: ceftazidime 8 μg/mL fixed
Procedure, shortened: as §1

[12] = system: Klebsiella pneumoniae XNWB 0003; assay: as above; settings: ceftazidime 8 μg/mL fixed
Procedure, shortened: as §1

[13] = system: Klebsiella pneumoniae XNWB 0002; assay: as above; settings: ceftazidime 8 μg/mL fixed
Procedure, shortened: as §1

[14] = system: Klebsiella pneumoniae XNWB 0001; assay: as above; settings: ceftazidime 8 μg/mL fixed
Procedure, shortened: as §1

[15] = system: Klebsiella pneumoniae XNWB 0004; assay: as above; settings: ceftazidime 8 μg/mL fixed
Procedure, shortened: as §1

[16] = system: Pseudomonas aeruginosa XNWB 0008; assay: as above; settings: ceftazidime 8 μg/mL fixed
Procedure, shortened: as §1

N=C(N)NC[C@H](O)c1nnc([C@@H]2CC3(CC3)[C@@H]3CN2C(=O)N3OS(=O)(=O)O)o1 [Example 12, (1R,4S)-4-(5-((S)-2-guanidyl-1-hydroxyethyl)-1,3,4-oxadiazol-2-yl)-6-oxo-5,7-diazaspiro[bicyclo[3.2.1]octane-2,1′-cyclopropan]-7-yl sulfate]
The minimum concentration of test compounds combined with imipenem (4 μg/mL) for bacteriostasis [1]: A (A: <8 μg/mL) | The minimum concentration of test compounds combined with imipenem (4 μg/mL) for bacteriostasis [2]: A (A: <8 μg/mL) | The minimum concentration of test compounds combined with imipenem (4 μg/mL) for bacteriostasis [3]: B (B: 8-16 μg/mL) | The minimum concentration of test compounds combined with imipenem (4 μg/mL) for bacteriostasis [4]: A (A: <8 μg/mL) | The minimum concentration of test compounds combined with imipenem (4 μg/mL) for bacteriostasis [5]: A (A: <8 μg/mL) | The minimum concentration of test compounds combined with imipenem (4 μg/mL) for bacteriostasis [6]: A (A: <8 μg/mL) | The minimum concentration of test compounds combined with imipenem (4 μg/mL) for bacteriostasis [7]: A (A: <8 μg/mL) | The minimum concentration of test compounds combined with imipenem (4 μg/mL) for bacteriostasis [8]: B (B: 8-16 μg/mL) | The minimum concentration of test compounds combined with ceftazidime (8 μg/mL) for bacteriostasis [9]: A (A: <8 μg/mL) | The minimum concentration of test compounds combined with ceftazidime (8 μg/mL) for bacteriostasis [10]: A (A: <8 μg/mL) | The minimum concentration of test compounds combined with ceftazidime (8 μg/mL) for bacteriostasis [11]: C (C: 16-128 μg/mL) | The minimum concentration of test compounds combined with ceftazidime (8 μg/mL) for bacteriostasis [12]: A (A: <8 μg/mL) | The minimum concentration of test compounds combined with ceftazidime (8 μg/mL) for bacteriostasis [13]: A (A: <8 μg/mL) | The minimum concentration of test compounds combined with ceftazidime (8 μg/mL) for bacteriostasis [14]: B (B: 8-16 μg/mL) | The minimum concentration of test compounds combined with ceftazidime (8 μg/mL) for bacteriostasis [15]: B (B: 8-16 μg/mL) | The minimum concentration of test compounds combined with ceftazidime (8 μg/mL) for bacteriostasis [16]: C (C: 16-128 μg/mL)

N=C(N)NC[C@@H](O)c1cc([C@@H]2CC3(CC3)[C@@H]3CN2C(=O)N3OS(=O)(=O)O)no1 [Example 40, (1R,4S)-4-(5-((R)-2-guanidyl-1-hydroxyethyl)isoxazol-3-yl)-6-oxo-5,7-diazaspiro [bicyclo[3.2.1]octane-2,1′-cyclopropan]-7-yl sulfate]
The minimum concentration of test compounds combined with imipenem (4 μg/mL) for bacteriostasis [1]: A (A: <8 μg/mL) | The minimum concentration of test compounds combined with imipenem (4 μg/mL) for bacteriostasis [2]: A (A: <8 μg/mL) | The minimum concentration of test compounds combined with imipenem (4 μg/mL) for bacteriostasis [3]: C (C: 16-128 μg/mL) | The minimum concentration of test compounds combined with imipenem (4 μg/mL) for bacteriostasis [4]: A (A: <8 μg/mL) | The minimum concentration of test compounds combined with imipenem (4 μg/mL) for bacteriostasis [5]: A (A: <8 μg/mL) | The minimum concentration of test compounds combined with imipenem (4 μg/mL) for bacteriostasis [6]: A (A: <8 μg/mL) | The minimum concentration of test compounds combined with imipenem (4 μg/mL) for bacteriostasis [7]: A (A: <8 μg/mL) | The minimum concentration of test compounds combined with imipenem (4 μg/mL) for bacteriostasis [8]: A (A: <8 μg/mL) | The minimum concentration of test compounds combined with ceftazidime (8 μg/mL) for bacteriostasis [9]: A (A: <8 μg/mL) | The minimum concentration of test compounds combined with ceftazidime (8 μg/mL) for bacteriostasis [10]: A (A: <8 μg/mL) | The minimum concentration of test compounds combined with ceftazidime (8 μg/mL) for bacteriostasis [11]: C (C: 16-128 μg/mL) | The minimum concentration of test compounds combined with ceftazidime (8 μg/mL) for bacteriostasis [12]: A (A: <8 μg/mL) | The minimum concentration of test compounds combined with ceftazidime (8 μg/mL) for bacteriostasis [13]: A (A: <8 μg/mL) | The minimum concentration of test compounds combined with ceftazidime (8 μg/mL) for bacteriostasis [14]: A (A: <8 μg/mL) | The minimum concentration of test compounds combined with ceftazidime (8 μg/mL) for bacteriostasis [15]: A (A: <8 μg/mL) | The minimum concentration of test compounds combined with ceftazidime (8 μg/mL) for bacteriostasis [16]: B (B: 8-16 μg/mL)

N[C@H]1C[C@@H](c2nnc([C@@H]3CC4(CC4)[C@@H]4CN3C(=O)N4OS(=O)(=O)O)o2)C1 [Example 15, (1R,4S)-4-(5-((1S,3R)-3-aminocyclobutyl)-1,3,4-oxadiazol-2-yl)-6-oxo-5,7-diazaspiro [bicyclo[3.2.1]octane-2,1′-cyclopropan]-7-yl sulfate]
The minimum concentration of test compounds combined with imipenem (4 μg/mL) for bacteriostasis [1]: A (A: <8 μg/mL) | The minimum concentration of test compounds combined with imipenem (4 μg/mL) for bacteriostasis [2]: A (A: <8 μg/mL) | The minimum concentration of test compounds combined with imipenem (4 μg/mL) for bacteriostasis [3]: C (C: 16-128 μg/mL) | The minimum concentration of test compounds combined with imipenem (4 μg/mL) for bacteriostasis [4]: A (A: <8 μg/mL) | The minimum concentration of test compounds combined with imipenem (4 μg/mL) for bacteriostasis [5]: A (A: <8 μg/mL) | The minimum concentration of test compounds combined with imipenem (4 μg/mL) for bacteriostasis [6]: A (A: <8 μg/mL) | The minimum concentration of test compounds combined with imipenem (4 μg/mL) for bacteriostasis [7]: A (A: <8 μg/mL) | The minimum concentration of test compounds combined with imipenem (4 μg/mL) for bacteriostasis [8]: B (B: 8-16 μg/mL) | The minimum concentration of test compounds combined with ceftazidime (8 μg/mL) for bacteriostasis [9]: A (A: <8 μg/mL) | The minimum concentration of test compounds combined with ceftazidime (8 μg/mL) for bacteriostasis [10]: A (A: <8 μg/mL) | The minimum concentration of test compounds combined with ceftazidime (8 μg/mL) for bacteriostasis [11]: C (C: 16-128 μg/mL) | The minimum concentration of test compounds combined with ceftazidime (8 μg/mL) for bacteriostasis [12]: A (A: <8 μg/mL) | The minimum concentration of test compounds combined with ceftazidime (8 μg/mL) for bacteriostasis [13]: A (A: <8 μg/mL) | The minimum concentration of test compounds combined with ceftazidime (8 μg/mL) for bacteriostasis [14]: A (A: <8 μg/mL) | The minimum concentration of test compounds combined with ceftazidime (8 μg/mL) for bacteriostasis [15]: B (B: 8-16 μg/mL) | The minimum concentration of test compounds combined with ceftazidime (8 μg/mL) for bacteriostasis [16]: C (C: 16-128 μg/mL)

CNCCc1cc([C@@H]2CC3(CC3)[C@@H]3CN2C(=O)N3OS(=O)(=O)O)no1 [Example 42, (1R,4S)-4-(5-(2-(methylamino)ethyl)isoxazol-3-yl)-6-oxo-5,7-diazaspiro[bicycle[3.2.1]octane-2,1′-cyclopropan]-7-yl sulfate]
The minimum concentration of test compounds combined with imipenem (4 μg/mL) for bacteriostasis [1]: A (A: <8 μg/mL) | The minimum concentration of test compounds combined with imipenem (4 μg/mL) for bacteriostasis [2]: A (A: <8 μg/mL) | The minimum concentration of test compounds combined with imipenem (4 μg/mL) for bacteriostasis [3]: C (C: 16-128 μg/mL) | The minimum concentration of test compounds combined with imipenem (4 μg/mL) for bacteriostasis [4]: A (A: <8 μg/mL) | The minimum concentration of test compounds combined with imipenem (4 μg/mL) for bacteriostasis [5]: A (A: <8 μg/mL) | The minimum concentration of test compounds combined with imipenem (4 μg/mL) for bacteriostasis [6]: A (A: <8 μg/mL) | The minimum concentration of test compounds combined with imipenem (4 μg/mL) for bacteriostasis [7]: A (A: <8 μg/mL) | The minimum concentration of test compounds combined with imipenem (4 μg/mL) for bacteriostasis [8]: B (B: 8-16 μg/mL) | The minimum concentration of test compounds combined with ceftazidime (8 μg/mL) for bacteriostasis [9]: A (A: <8 μg/mL) | The minimum concentration of test compounds combined with ceftazidime (8 μg/mL) for bacteriostasis [10]: A (A: <8 μg/mL) | The minimum concentration of test compounds combined with ceftazidime (8 μg/mL) for bacteriostasis [11]: C (C: 16-128 μg/mL) | The minimum concentration of test compounds combined with ceftazidime (8 μg/mL) for bacteriostasis [12]: A (A: <8 μg/mL) | The minimum concentration of test compounds combined with ceftazidime (8 μg/mL) for bacteriostasis [13]: A (A: <8 μg/mL) | The minimum concentration of test compounds combined with ceftazidime (8 μg/mL) for bacteriostasis [14]: A (A: <8 μg/mL) | The minimum concentration of test compounds combined with ceftazidime (8 μg/mL) for bacteriostasis [15]: B (B: 8-16 μg/mL) | The minimum concentration of test compounds combined with ceftazidime (8 μg/mL) for bacteriostasis [16]: C (C: 16-128 μg/mL)

N[C@@H]1CCC(c2nnc([C@@H]3CC4(CC4)[C@@H]4CN3C(=O)N4OS(=O)(=O)O)o2)C1 (stereo in doubt) [Example 18, (1R,4S)-4-(5-((1R,3R)-3-aminocyclopentyl)-1,3,4-oxadiazol-2-yl)-6-oxo-5,7-diazaspiro [bicyclo[3.2.1]octane-2,1′-cyclopropan]-7-yl sulfate]
The minimum concentration of test compounds combined with imipenem (4 μg/mL) for bacteriostasis [1]: A (A: <8 μg/mL) | The minimum concentration of test compounds combined with imipenem (4 μg/mL) for bacteriostasis [2]: A (A: <8 μg/mL) | The minimum concentration of test compounds combined with imipenem (4 μg/mL) for bacteriostasis [3]: B (B: 8-16 μg/mL) | The minimum concentration of test compounds combined with imipenem (4 μg/mL) for bacteriostasis [4]: A (A: <8 μg/mL) | The minimum concentration of test compounds combined with imipenem (4 μg/mL) for bacteriostasis [5]: A (A: <8 μg/mL) | The minimum concentration of test compounds combined with imipenem (4 μg/mL) for bacteriostasis [6]: A (A: <8 μg/mL) | The minimum concentration of test compounds combined with imipenem (4 μg/mL) for bacteriostasis [7]: A (A: <8 μg/mL) | The minimum concentration of test compounds combined with imipenem (4 μg/mL) for bacteriostasis [8]: A (A: <8 μg/mL) | The minimum concentration of test compounds combined with ceftazidime (8 μg/mL) for bacteriostasis [9]: A (A: <8 μg/mL) | The minimum concentration of test compounds combined with ceftazidime (8 μg/mL) for bacteriostasis [10]: A (A: <8 μg/mL) | The minimum concentration of test compounds combined with ceftazidime (8 μg/mL) for bacteriostasis [11]: C (C: 16-128 μg/mL) | The minimum concentration of test compounds combined with ceftazidime (8 μg/mL) for bacteriostasis [12]: A (A: <8 μg/mL) | The minimum concentration of test compounds combined with ceftazidime (8 μg/mL) for bacteriostasis [13]: A (A: <8 μg/mL) | The minimum concentration of test compounds combined with ceftazidime (8 μg/mL) for bacteriostasis [14]: A (A: <8 μg/mL) | The minimum concentration of test compounds combined with ceftazidime (8 μg/mL) for bacteriostasis [15]: B (B: 8-16 μg/mL) | The minimum concentration of test compounds combined with ceftazidime (8 μg/mL) for bacteriostasis [16]: B (B: 8-16 μg/mL)
